Results from patent US20240173419A1, “CDK2 DEGRADERS AND USES THEREOF” (Kymera Therapeutics, Inc., priority 2022, published 2024).

Target: T1, CDK2 (Homo sapiens, UniProt P24941)
T1 construct: endogenous in cells; host or cells: MKN1 cells
Test: CDK2 degradation in MKN1 cells (AlphaLISA)
Assay type: cell-based
Design: key to CDK2 degradation 14 h: Mean external-Abs DC50 (nM): A (<100 nM); B (≥100-500 nM); C (>500-1000 nM); D (>1000 nM); E (not achieved)
Settings: 14 h incubation; for DC50: read-out: CDK2 degradation 14 h: Mean external-Abs DC50
Procedure: Degradation of CDK2 in MKN1 cells was measured using AlphaLISA technology (PerkinElmer ALSU-TCDK2-A10K). MKN1 cells were maintained in RPMI1640 medium containing 10% FBS+1× penn/strep. Cells were seeded in 96-well plates (Corning 3599) at a density of 2e4 cells per well in 80 μL of fresh complete growth medium. Cells were incubated overnight at 37° C., 5% CO2. Compounds were then added to the cell assay plates with a final top concentration of 10 μM in a 1:5 dilution series with a total of 11 doses (0.001 nM-10 μM). The final volume per well was 160 μL and the final DMSO concentration was 0.1%. Additionally, wells containing no cells and only complete growth medium were also maintained on the cell assay plates (‘no cell’ wells) and processed along with experimental wells. After 14 hour-incubation at 37° C., 5% CO2, the medium was removed and the cells were washed once with 100 μL of 1×PBS. Following removal of PBS, 40 μL of 1× Lysis Buffer containing 1× protease and phosphatase inhibitors (Roche 4693116001; Roche 4906837001) were added to each well. The cell assay plate was agitated on a plate shaker at 350 rpm for 10 minutes at room temperature. 10 μL of each cell lysate were transferred to a 384-well plate (PerkinElmer 6007290). 10 μL of control lysates (from PerkinElmer ALSU-TCDK2-A10K kit) were added to separate wells to generate a standard curve. Activation Buffer was prepared by diluting 25-fold in combined Reaction Buffer 1 and Reaction Buffer 2. Acceptor Beads were diluted 50-fold in combined Reaction Buffers. 5 μL of Acceptor Mix were added to each well. The plate was sealed with Topseal-Aadhesive film, covered with foil, and incubated in the dark for 1 hour at room temperature. Under subdued light, the Donor Beads were diluted 50-fold in Dilution Buffer. 5 μL of Donor Mix were added to each well under subdued light. The plate was sealed with Topseal-A adhesive film, covered with foil, and incubated in the dark for 1 hour at room temperature. Under subdued light, the plates were analyzed on an EnVision Microplate Reader (PerkinElmer Model 2009-0030). The average signal from ‘no cell’ wells was subtracted from the signal in experimental wells prior to calculating Alpha signal for test compounds and negative control (0.100 DMSO). The data were analyzed using Xlfit (v5.3. 1.3) and the dose-dependent CDK2 degradation data were fit using a four-parameter logistic model to calculate DC50.

Row | SMILES | CDK2 degradation 14 h: Average Dmax % | DC50 [µM] | CDK2 degradation 14 h: Mean external-Abs DC50 (nM)
1 | Cc1cc(S(=O)(=O)C2CCC3(CC2)CN(CC2CCN(c4cccc5c4n(C)c(=O)n5C4CCC(=O)NC4=O)CC2)C3)ccc1Nc1ncc2cc(Cl)c(=O)n(C3CCCC3)c2n1 (centres unmarked) [I-66] | A (A (>75% o)) | 0.1 to 0.5 | –
2 | Cc1cc(S(=O)(=O)C2CCC3(CC2)CN(CC2CCN(c4ccc5c(c4)n(C)c(=O)n5C4CCC(=O)NC4=O)CC2)C3)ccc1Nc1ncc2cc(Cl)c(=O)n(C3CCCC3)c2n1 (centres unmarked) [I-67] | A (A (>75% o)) | 0.1 to 0.5 | –
3 | Cc1cc(S(=O)(=O)C2CC3(CCN(CC4CCN(c5cc(F)cc(NC6CCC(=O)NC6=O)c5)CC4)CC3)C2)ccc1Nc1ncc2cc(Cl)c(=O)n(C3CCCC3)c2n1 (centres unmarked) [I-69] | A (A (>75% o)) | 0.1 to 0.5 | –
4 | Cc1cc(S(=O)(=O)C2CC3(CCN(CC4CCN(c5ccc(F)c(NC6CCC(=O)NC6=O)c5)CC4)CC3)C2)ccc1Nc1ncc2cc(Cl)c(=O)n(C3CCCC3)c2n1 (centres unmarked) [I-70] | B (B (>50% -75%)) | > 1 | –
5 | Cc1cc(S(=O)(=O)C2CC3(CCN(CC4CCN(c5cccc(NC6CCC(=O)NC6=O)c5F)CC4)CC3)C2)ccc1Nc1ncc2cc(Cl)c(=O)n(C3CCCC3)c2n1 (centres unmarked) [I-71] | A (A (>75% o)) | 0.1 to 0.5 | –
6 | COc1cc(N2CCC(CN3CCC4(CC3)CC(S(=O)(=O)c3ccc(Nc5ncc6cc(Cl)c(=O)n(C7CCCC7)c6n5)c(C)c3)C4)CC2)ccc1NC1CCC(=O)NC1=O (centres unmarked) [I-72] | A (A (>75% o)) | 0.1 to 0.5 | –
7 | Cc1cc(S(=O)(=O)C2CC3(CCN(CC4CCN(c5cccc(OC6CCC(=O)NC6=O)c5)CC4)CC3)C2)ccc1Nc1ncc2cc(Cl)c(=O)n(C3CCCC3)c2n1 (centres unmarked) [I-74] | A (A (>75% o)) | 0.1 to 0.5 | –
8 | Cc1cc(S(=O)(=O)C2CC3(CCN(CC4CCN(c5ccc(NC6CCC(=O)NC6=O)cc5C)CC4)CC3)C2)ccc1Nc1ncc2cc(Cl)c(=O)n(C3CCCC3)c2n1 (centres unmarked) [I-75] | B (B (>50% -75%)) | 0.1 to 0.5 | –
9 | Cc1cc(S(=O)(=O)C2CC3(CCN(CC4CCN(c5ccc(NC6CCC(=O)NC6=O)c(C)c5)CC4)CC3)C2)ccc1Nc1ncc2cc(Cl)c(=O)n(C3CCCC3)c2n1 (centres unmarked) [I-76] | B (B (>50% -75%)) | 0.5 to 1 | –
10 | Cc1cc(S(=O)(=O)C2CC3(CCN(CC4CCN(c5cccc(N6CCC(=O)NC6=O)c5)CC4)CC3)C2)ccc1Nc1ncc2cc(Cl)c(=O)n(C3CCCC3)c2n1 [I-78] | D (D (<25%)) | > 1 | –
11 | Cc1cc(S(=O)(=O)C2CC3(CCN(CC4CCN(c5ccc(N6CCC(=O)NC6=O)cc5)CC4)CC3)C2)ccc1Nc1ncc2cc(Cl)c(=O)n(C3CCCC3)c2n1 [I-79] | B (B (>50% -75%)) | 0.1 to 0.5 | –
12 | Cc1cc(S(=O)(=O)C2CC3(CCN(CC4CCN(c5cccc(C6CCC(=O)NC6=O)c5)CC4)CC3)C2)ccc1Nc1ncc2cc(Cl)c(=O)n(C3CCCC3)c2n1 (centres unmarked) [I-80] | C (C (>25% -50%)) | – | E
13 | Cc1cc(S(=O)(=O)C2CC3(CCN(CC4CCN(c5ccc(NC6CCC(=O)NC6=O)c(F)c5)CC4)CC3)C2)ccc1Nc1ncc2cc(Cl)c(=O)n(C3CCCC3)c2n1 (centres unmarked) [I-90] | B (B (>50% -75%)) | 0.1 to 0.5 | –
14 | Cc1cc(S(=N)(=O)C2CC3(CCN(CC4CCN(c5cccc6c5n(C)c(=O)n6C5CCC(=O)NC5=O)CC4)CC3)C2)ccc1Nc1ncc2cc(Cl)c(=O)n(C3CCCC3)c2n1 (centres unmarked) [I-93] | A (A (>75% o)) | < 0.1 | –
15 | Cc1cc(S(=O)(=O)C2CC3(CCN(CC4CCN(c5cccc6c5n(C)c(=O)n6C5CCC(=O)NC5=O)CC4)CC3)C2)ccc1Nc1ncc(C(F)(F)F)c(C2CCC(C)(O)CC2)n1 (centres unmarked) [I-119] | A (A (>75% o)) | < 0.1 | –
16 | Cc1cc(S(=O)(=O)C2CC3(CCN(CC4CCN(c5ccc6c(c5F)n(C)c(=O)n6C5CCC(=O)NC5=O)CC4)CC3)C2)ccc1Nc1ncc2c(n1)N(C1CCCC1)C(=O)N(C)C2 (centres unmarked) [I-125] | A (A (>75% o)) | < 0.1 | –
17 | Cc1cc(S(=O)(=O)C2CC3(CCN(CC4CCN(c5ccc6c(c5F)n(C)c(=O)n6C5CCC(=O)NC5=O)CC4)CC3)C2)ccc1Nc1ncc2cc(Cl)c(=O)n(C(C)C)c2n1 (centres unmarked) [I-128] | A (A (>75% o)) | < 0.1 | –

The next lines start with the values.

Row | CDK2 degradation 14 h: Average Dmax % | DC50 [µM] | CDK2 degradation 14 h: Mean external-Abs DC50 (nM) | SMILES
18 | A (A (>75% o)) | < 0.1 | – | Cc1cc(S(=O)(=O)C2CC3(CCN(CC4CCN(c5ccc6c(c5)n(C)c(=O)n6C5CCC(=O)NC5=O)CC4)CC3)C2)ccc1Nc1ncc2cc(Cl)c(=O)n(C3CCCC3)c2n1 (centres unmarked) [I-57]
19 | A (A (>75% o)) | < 0.1 | – | Cc1cc(S(=O)(=O)C2CC3(CCN(CC4CCN(c5cccc6c5n(C)c(=O)n6C5CCC(=O)NC5=O)CC4)CC3)C2)ccc1Nc1ncc2cc(Cl)c(=O)n(C3CCCC3)c2n1 (centres unmarked) [I-58]
20 | A (A (>75% o)) | < 0.1 | – | Cc1cc(S(=O)(=O)C2CCN(CCC3CCN(c4cccc5c4n(C)c(=O)n5C4CCC(=O)NC4=O)CC3)CC2)ccc1Nc1ncc2cc(Cl)c(=O)n(C3CCCC34CC4)c2n1 (centres unmarked) [I-59]
21 | A (A (>75% o)) | < 0.1 | – | Cc1cc(S(=O)(=O)C2CCC(CN(C)C3CCN(c4cccc5c4n(C)c(=O)n5C4CCC(=O)NC4=O)CC3)CC2)ccc1Nc1ncc2cc(Cl)c(=O)n(C3CCCC34CC4)c2n1 (centres unmarked) [I-60]
22 | A (A (>75% o)) | < 0.1 | – | Cc1cc(S(=O)(=O)C2CCN(CCN3CCN(c4cccc5c4n(C)c(=O)n5C4CCC(=O)NC4=O)CC3)CC2)ccc1Nc1ncc(C(F)(F)F)c(-c2cnn(C)c2)n1 (centres unmarked) [I-61]
23 | A (A (>75% o)) | < 0.1 | – | Cc1cc(S(=O)(=O)[C@H]2CC[C@H](CN(C)C3CCN(c4cccc5c4n(C)c(=O)n5C4CCC(=O)NC4=O)CC3)CC2)ccc1Nc1ncc2ccc(=O)n(C3CCCC3)c2n1 (some centres unmarked) [I-63]
24 | A (A (>75% o)) | < 0.1 | – | Cc1cc(S(=O)(=O)C2CCN(CCN3CCN(c4cccc5c4n(C)c(=O)n5C4CCC(=O)NC4=O)CC3)CC2)ccc1Nc1ncc2cc(Cl)c(=O)n(C3CCCC3)c2n1 (centres unmarked) [I-64]
25 | A (A (>75% o)) | < 0.1 | – | Cc1cc(S(=O)(=O)C(C)(C)CCO[C@H]2CC[C@H](CN3CCC(c4ccc5c(c4)n(C)c(=O)n5C4CCC(=O)NC4=O)CC3)CC2)ccc1Nc1ncc2cc(Cl)c(=O)n(C3CCCC3)c2n1 (some centres unmarked) [I-65]
26 | – | < 0.1 | – | Cc1cc(S(=O)(=O)CCCO[C@H]2CC[C@H](CN3CCC(c4ccc5c(c4)n(C)c(=O)n5C4CCC(=O)NC4=O)CC3)CC2)ccc1Nc1ncc(C(F)(F)F)c(-c2cnn(C)c2)n1 (some centres unmarked) [I-68]
27 | A (A (>75% o)) | < 0.1 | – | Cc1cc(S(=O)(=O)C2CC3(CCN(CC4CCN(c5ccc(OC6CCC(=O)NC6=O)cc5)CC4)CC3)C2)ccc1Nc1ncc2cc(Cl)c(=O)n(C3CCCC3)c2n1 (centres unmarked) [I-73]
28 | A (A (>75% o)) | < 0.1 | – | COc1cc(NC2CCC(=O)NC2=O)ccc1N1CCC(CN2CCC3(CC2)CC(S(=O)(=O)c2ccc(Nc4ncc5cc(Cl)c(=O)n(C6CCCC6)c5n4)c(C)c2)C3)CC1 (centres unmarked) [I-77]
29 | A (A (>75% o)) | < 0.1 | – | Cc1cc(S(=O)(=O)C2CC3(CCN(CC4CCN(c5ccc(C6CCC(=O)NC6=O)cc5)CC4)CC3)C2)ccc1Nc1ncc2cc(Cl)c(=O)n(C3CCCC3)c2n1 (centres unmarked) [I-81]
30 | A (A (>75% o)) | < 0.1 | – | Cc1cc(S(=O)(=O)C2CC3(CCN(CC4CCN(c5cccc6c(N7CCC(=O)NC7=O)cncc56)CC4)CC3)C2)ccc1Nc1ncc2cc(Cl)c(=O)n(C3CCCC3)c2n1 [I-82]
31 | A (A (>75% o)) | < 0.1 | – | Cc1cc(S(=O)(=O)C2CC3(CCN(CC4CCN(c5cccc6c5n(C)c(=O)n6C5CCC(=O)NC5=O)CC4)CC3)C2)ccc1Nc1ncc2cc(C(F)F)c(=O)n(C3CCCC3)c2n1 (centres unmarked) [I-86]
32 | A (A (>75% o)) | < 0.1 | – | Cc1cc(S(=O)(=O)C2CC3(CCN(CC4CCN(c5cccc(NC6CCC(=O)NC6=O)c5)CC4)CC3)C2)ccc1Nc1ncc2cc(Cl)c(=O)n(C3CCCC3)c2n1 (centres unmarked) [I-87]
33 | A (A (>75% o)) | < 0.1 | – | COc1ccc2c(c1N1CCC(CN3CCC4(CC3)CC(S(=O)(=O)c3ccc(Nc5ncc6cc(Cl)c(=O)n(C7CCCC7)c6n5)c(C)c3)C4)CC1)n(C)c(=O)n2C1CCC(=O)NC1=O (centres unmarked) [I-88]
